Assay [1] can be described thus: Antiproliferative activity against human HeLa cells after 72 hrs by SRB assay. The format is functional, cell-based. (In general: In SRB staining, fixed cells bind dye roughly in proportion to their protein.)
A short description of assay [2]: Antiproliferative activity against human MDA-MB-231 cells after 72 hrs by SRB assay. The format is functional, cell-based. To be noted: MDA-MB-231, 72 h.
Assay [3] has as its target T1, Heat shock protein HSP90 (Homo sapiens) (UniProt P07900+P08238). As to the kind of experiment: Inhibition of Hsp90 in human MDA-MB-231 cells assessed as downregulation of Cdc-2 expression after 24 hrs by Western blot analysis. It counts as cell-based.
Assay [4] concerns the target Heat shock protein HSP 90-alpha (Homo sapiens) (UniProt P07900). As to the kind of experiment: Induction of thermal stabilization of Hsp90alpha in human 293T cells at 10 uM preincubated for 3 hrs followed by […] at 37 to 61 degC and subsequently […] at room temperature by Western blot method. It counts as cell-based. (Immunoblotting shows a protein as a band on a membrane.)

Assay [5] has as its target T1, Heat shock protein HSP90 (Homo sapiens). As to the kind of experiment: Inhibition of Hsp90 in human MDA-MB-231 cells assessed as downregulation of C-raf expression after 24 hrs by Western blot analysis. It counts as cell-based.
Assay [6] shares this target. As to the kind of experiment: Inhibition of Hsp90 in human MDA-MB-231 cells assessed as upregulation of Hsp70 expression after 24 hrs by Western blot analysis. The format is cell-based.
Assay [7] has the same target. As to the kind of experiment: Inhibition of Hsp90 in human MDA-MB-231 cells assessed as downregulation of Her2 expression after 24 hrs by Western blot analysis. It counts as cell-based.
Assay [8] has the same target. As to the kind of experiment: Inhibition of Hsp90 in human MDA-MB-231 cells assessed as downregulation of CDK4 expression after 24 hrs by Western blot analysis. The format is cell-based.
Assay [9] concerns the target Heat shock protein HSP 90-alpha (Homo sapiens) (UniProt P07900). As to the kind of experiment: Induction of thermal stabilization of Hsp90alpha in human 293T cells preincubated for 3 hrs followed by […] at 55 degC and subsequently […] at room temperature by Western blot method. It counts as cell-based.

Broadly, the IC50 is the concentration that inhibits the measured activity by half.

Active and inactive are the calls of the source. The calls are words filed in the database; no cut-off is given here. Some results are limits rather than exact numbers.

Regarding `O=C(NCCc1ccccc1)[C@H]1Cc2ccccc2CN1C(=O)c1cc(Cl)c(O)cc1O`, the figures for the IC50 in [1] and in assay [2] were 4.75 µM and 2.65 µM, respectively.

With `CCCNC(=O)[C@@H]1Cc2ccccc2CN1C(=O)c1cc(Cl)c(O)cc1O`, the IC50 in assay [1] worked out at 7.5 µM; in assay [2], 5.34 µM.

On to `O=C([C@H]1Cc2ccccc2CN1C(=O)c1cc(Cl)c(O)cc1O)N1CCCCC1`, for which the IC50 in [1] was found to be 3.45 µM; in assay [2], 1.64 µM.

`O=C(NC1CCCC1)[C@H]1Cc2ccccc2CN1C(=O)c1cc(Cl)c(O)cc1O`: the IC50 in [1] was 5.42 µM; in [2], 3.51 µM.

Turning to `CCCNC(=O)[C@H]1Cc2ccccc2CN1C(=O)c1cc(Cl)c(O)cc1O`, the half-maximal inhibitory concentration (IC50) in [1] was 3.98 µM; in assay [2], 2.58 µM.

`CCN(CC)C(=O)[C@H]1Cc2ccccc2CN1C(=O)c1cc(Cl)c(O)cc1O`: the IC50 turned out to be 4.91 µM in assay [1] and 2.24 µM in assay [2].

Take `O=C([C@@H]1Cc2ccccc2CN1C(=O)c1cc(Cl)c(O)cc1O)N1CCCCC1`: the IC50 in assay [1] turned out to be 8.88 µM; in [2] it was 9.64 µM.

Turning to `COC1=C2C[C@@H](C)C[C@H](OC)[C@H](O)[C@@H](C)/C=C(\C)[C@H](OC(N)=O)[C@@H](OC)/C=C\C=C(/C)C(=O)NC(=CC1=O)C2=O` [GELDANAMYCIN], the values for the IC50 in [1] and in assay [2] were 0.06 µM and 0.03 µM, respectively.

Take `O=C(Nc1ccccc1)[C@H]1Cc2ccccc2CN1C(=O)c1cc(Cl)c(O)cc1O`: the IC50 turned out to be 2.69 µM in assay [1] and 1.9 µM in assay [2].

Regarding `O=C(NC1CCCC1)[C@@H]1Cc2ccccc2CN1C(=O)c1cc(Cl)c(O)cc1O`, the IC50 in [1] and in assay [2] was over 10 µM each time.

`O=C([C@@H]1Cc2ccccc2CN1C(=O)c1cc(Cl)c(O)cc1O)N1CCCC1`: the IC50 in [1] stood at 9.76 µM; in [2] it was 7.88 µM.

For the molecule `CCNC(=O)[C@@H]1Cc2ccccc2CN1C(=O)c1cc(Cl)c(O)cc1O`, the IC50 turned out to be 5.18 µM in assay [1] and 3.88 µM in assay [2].

Turning to `CNC(=O)[C@@H]1Cc2ccccc2CN1C(=O)c1cc(Cl)c(O)cc1O`, the values for the half-inhibitory concentration (IC50) in [1] and in assay [2] were over 10 µM and 9.43 µM, respectively.

Consider `C=CCNC1=C2C[C@@H](C)C[C@H](OC)[C@H](O)[C@@H](C)/C=C(\C)[C@H](OC(N)=O)[C@@H](OC)/C=C\C=C(/C)C(=O)NC(=CC1=O)C2=O` [TANESPIMYCIN], for which the IC50 in [1] was found to be 0.2 µM; in assay [2] it was 0.52 µM.

For the molecule `C=CCNC(=O)[C@H]1Cc2ccccc2CN1C(=O)c1cc(Cl)c(O)cc1O`, the IC50 in assay [1] was found to be 3.07 µM; in assay [2], 2.15 µM.

As to `CNC(=O)[C@H]1Cc2ccccc2CN1C(=O)c1cc(Cl)c(O)cc1O`, the IC50 in assay [1] was determined as 7.62 µM; in assay [2], 9.42 µM.

As for `CCN(CC)C(=O)[C@@H]1Cc2ccccc2CN1C(=O)c1cc(Cl)c(O)cc1O`, the results for the half-inhibitory concentration (IC50) in [1] and in assay [2] were 7.8 µM and 6.2 µM, respectively.

In the case of `O=C([C@H]1Cc2ccccc2CN1C(=O)c1cc(Cl)c(O)cc1O)N1CCCC1`, the IC50 in [1] worked out at 3.97 µM; in assay [2], 1.94 µM.

As for `CC(C)NC(=O)[C@H]1Cc2ccccc2CN1C(=O)c1cc(Cl)c(O)cc1O`, the IC50 in assay [1] came out at 3.08 µM; in assay [2] it was 2.49 µM.

Consider `CC(C)NC(=O)[C@@H]1Cc2ccccc2CN1C(=O)c1cc(Cl)c(O)cc1O`, for which the figures for the concentration for half-maximal inhibition (IC50) in assay [1] and in [2] were 7.12 µM and 5.81 µM, respectively.

`O=C(Nc1ccccc1)[C@@H]1Cc2ccccc2CN1C(=O)c1cc(Cl)c(O)cc1O`: the half-maximal inhibitory concentration (IC50) in assay [1] and in assay [2] was over 10 µM in each case.

Consider `O=C(NCCc1ccccc1)[C@@H]1Cc2ccccc2CN1C(=O)c1cc(Cl)c(O)cc1O`, for which the IC50 in assay [1] is over 10 µM; in [2], 9.05 µM.

In the case of `O=C(NC1CCCCC1)[C@H]1Cc2ccccc2CN1C(=O)c1cc(Cl)c(O)cc1O`, the IC50 in [1] amounted to 3.55 µM; in [2], 2.05 µM.

On to `CCNC(=O)[C@H]1Cc2ccccc2CN1C(=O)c1cc(Cl)c(O)cc1O`, for which the figures for the IC50 in assay [1] and in [2] were 4.57 µM and 4.62 µM, respectively.

As to `O=C(NCc1ccccc1)[C@H]1Cc2ccccc2CN1C(=O)c1cc(Cl)c(O)cc1O`, the inhibition result in assay [3], in [5], in assay [6], in assay [7] and in assay [8] was “Dose-dependent effect” throughout. Also, the concentration for half-maximal inhibition (IC50) in assay [1] is 1.74 µM; in assay [2], 0.98 µM. Besides, the outcome in assay [4] was Active. The Activity entry in [9] was “Dose-dependent effect”.

For the molecule `O=C(NCc1ccccc1)[C@@H]1Cc2ccccc2CN1C(=O)c1cc(Cl)c(O)cc1O`, the IC50 in [1] was 4.58 µM; in [2] it was 4.05 µM.

Turning to `O=C(NC1CCCCC1)[C@@H]1Cc2ccccc2CN1C(=O)c1cc(Cl)c(O)cc1O`, the concentration for half-maximal inhibition (IC50) in assay [1] is 5.42 µM; in [2] it was 7.3 µM.

Turning to `C=CCNC(=O)[C@@H]1Cc2ccccc2CN1C(=O)c1cc(Cl)c(O)cc1O`, the IC50 in assay [1] is 7 µM; in assay [2], 6.74 µM.

Values taken from ChEMBL document CHEMBL3856215, “Design and synthesis of N-(5-chloro-2,4-dihydroxybenzoyl)-(R)-1,2,3,4-tetrahydroisoquinoline-3-carboxamides as novel Hsp90 inhibitors” (Eur J Med Chem, 2016).
